Measured values taken from patent US20170360882A1, “COMPOSITION FOR PREVENTING, IMPROVING OR TREATING PSORIASIS COMPRISING IMMUNOMODULATOR AND GLUCOSAMINE” (DONGGUK UNIVERSITY INDUSTRY-ACADEMY COOPERATION FOUNDATION, priority 2014, published 2017).

Key:
Assay type in all cases: in vivo, C57BL/6 mice
[1] = test system: IL-17A; assay: Cytokine production assay (ELISA), IL-17A in blood serum and skin of IMQ-induced psoriasis-like mice; conditions: blood serum samples and skin samples; glucosamine 300 mg/kg, cyclosporine A 10 and 20 mg/kg; co-administration vs each alone; alone vs control group (IMQ alone)
Method: (§1) To measure cytokine levels in blood serum, mouse blood serum was collected 24 hours after the final administration and stored at −70° C. until analysis. To measure cytokine levels in the skin tissues, the back skin of mice was removed and stored at −80° C. Thereafter, the skin tissues were homogenized using a Bullet Blender™ Blue (Next Advance, Averill Park, N.Y.) at 4° C. to obtain supernatants, and the supernatants were stored at −30° C. IL-17A, IL-22, IL-23, and TNF-α concentrations in the blood serum and the skin tissues of mice were measured using the Mouse IL-17A Quantikine ELISA Kit (R&D Systems, Minneapolis, Minn., USA), IL-22, IL-23 and TNF-α ELISA kits (eBioscience, San Diego, Calif., USA). Meanwhile, ELISA was performed according to the manufacturer's instructions.

[2] = test system: CD4+ CD25+ Treg cells; assay: Flow cytometry of regulatory T (Treg) cells from spleens of IMQ-induced psoriasis-like mice; conditions: spleen cells; glucosamine 300 mg/kg, cyclosporine A 20 mg/kg; co-administration vs each alone; alone vs control group (IMQ alone)
Method: Single-cell suspensions prepared from spleens were stained with FITC-anti-CD4 (GK1.5) and PE-anti-CD25 (280406) (R&D Systems, Minneapolis, Minn., USA), and incubated in a PBS solution containing 2% FBS at 4° C. for 30 minutes under dark conditions. After incubation, the samples were washed twice and analyzed using CellQuest software (Becton Dickinson).

[3] = test system: IL-22; assay: Cytokine production assay (ELISA), IL-22 in blood serum and skin of IMQ-induced psoriasis-like mice; conditions: blood serum samples and skin samples; glucosamine 300 mg/kg, cyclosporine A 10 and 20 mg/kg; co-administration vs each alone; alone vs control group (IMQ alone)
Method: as §1

[4] = test system: IMQ-induced psoriasis-like mouse model; assay: Skin lesion score (erythema+scaling+thickening) in IMQ-induced psoriasis-like mouse model; conditions: for severity of psoriasis-like skin lesions (cumulative score erythema+scaling+thickening): oral, 7 days
Method: More specifically, hair on the backs of C57BL/6 mice was shaved off using an electric razor and then treated with a depilatory (Niclean, Ildong, Korea). For all other groups except a normal group, 62.5 mg of IMQ cream was applied daily to the shaved back area for 14 days.
On the other hand, the normal group as a negative control group was treated only with a vehicle cream (petrolatum).
The degree of (1) erythema, (2) scaling and (3) thickening was scored as 0 (none), 1 (mild), 2 (moderate) and 3 (severe). A cumulative dermatitis score (erythema+scaling+thickening) indicates the severity of psoriasis in back skin (scale: 0-9).
The clinical skin scores were calculated by summing the scores obtained on the basis of symptoms of erythema, scaling and thickening.

[5] = test system: TNF-α; assay: Cytokine production assay (ELISA), TNF-α in blood serum and skin of IMQ-induced psoriasis-like mice; conditions: blood serum samples and skin samples; glucosamine 300 mg/kg, cyclosporine A 10 and 20 mg/kg; co-administration vs each alone; alone vs control group (IMQ alone)
Method: as §1

[6] = test system: IL-23; assay: Cytokine production assay (ELISA), IL-23 in blood serum and skin of IMQ-induced psoriasis-like mice; conditions: blood serum samples and skin samples; glucosamine 300 mg/kg, cyclosporine A 10 and 20 mg/kg; co-administration vs each alone; alone vs control group (IMQ alone)
Method: as §1

With `N[C@@H]1C(O)O[C@H](CO)[C@H](O)[C@@H]1O` (stereo in doubt) [glucosamine] the IL-17A level [1] was “no significant difference”, the “number of CD4+ CD25+ Treg cells” value [2] was “no significant difference” and the IL-22 level [3] was “no significant difference”. For the same molecule, the clinical skin scores ([4]; glucosamine 300 mg/kg, cyclosporine A 10 and 20 mg/kg, oral once a day for a week, co-administration vs each alone, alone vs control group (IMQ alone)) was “no significant difference”, the “severity of psoriasis-like skin lesions (cumulative score erythema+scaling+thickening)” value ([4]; high doses alone: glucosamine 400 mg/kg, cyclosporine A 40 mg/kg) was “reduced” and the “severity of psoriasis-like skin lesions (cumulative score erythema+scaling+thickening)” value ([4]; low doses alone: glucosamine 100, 200 and 300 mg/kg, cyclosporine A 10 and 20 mg/kg) was “no significant effect”. The “level of TNF-α” value [5] was “no significant difference” and the IL-23 level [6] was “no significant difference”.
